Data from patent publication US6054115A, “Hydroxymethyl phosphine compounds for use as diagnostic and therapeutic pharmaceuticals and method of making same” (priority 1998, dated 2000).

Experiments:
[1] = Oxidative stability of HMPE and HMPB in air and aqueous solution; format: physicochemical; details: air and aqueous solutions
[2] = In vitro stability of Re complexes to cysteine challenge, 31P NMR; format: physicochemical; details: for ligand exchange or complex decomposition: 1 M cysteine, 25° C, ~0.01 M complex
Procedure: Appropriate sample sizes of complexes 8, 9, and 10 were dissolved in 10 mL of deionized water to afford solution concentrations of ~0.01 M. To these solutions was added 15 mL of a 1.0 M cysteine solution also in water. The solutions were allowed to stir at room temperature overnight. The reaction progress for potential ligand displacement was monitored by ^31 P NMR spectroscopy at various timepoints over a twenty-four hour study period.
In order to determine the in vitro stability of the rhenium S2 P2 complexes 8, 9, and 10, the solutions of each were allowed to incubate at 25° C. in an aqueous solution of cysteine.

stability profile (kinetic inertness) ([2]; 1.0 M cysteine, 24 hours) | Compound | oxidative stability [1] | ligand exchange or complex decomposition [2]
 | OCP(CO)c1ccccc1P(CO)CO [HMPB, (HOH2 C)2 PC6 H4 P(CH2 OH)2] | oxidatively stable in air and also in aqueous solutions | 
 | OCP(CO)CCP(CO)CO [HMPE, (HOH2 C)2 PCH2 CH2 P(CH2 OH)2] | oxidatively stable in air and also in aqueous solutions | 
 | [ReO2 (HOH2 C)2 P(CH2)2 S(CH2)3 S(CH2)2 P(CH2 OH)2 ]2 Cl2 [Compound 8] |  | no observable ligand exchange or complex decomposition
 | [ReO2 (HOH2 C)2 P(CH2)2 S(CH2)4 S(CH2)2 P(CH2 OH2 ]2 (ReO4^-)2 [Compound 9] |  | no observable ligand exchange or complex decomposition
unusual kinetic inertness | [ReO2 (HOH2 C)2 P(CH2)3 S(CH2)3 S(CH2)3 P(CH2 OH)2 ]Cl [Compound 10] |  | no observable ligand exchange or complex decomposition
